Measurements: ChEMBL document CHEMBL5036365, “A Molecular Networking Based Discovery of Diketopiperazine Heterodimers and Aspergillicins from Aspergillus caelatus” (J Nat Prod, 2022)
Active and inactive are the calls of the source.

Key:
HepG2 [1] = assay: Cytotoxicity against human HepG2 cells at 40 ug/ml treated for 72 hrs by MTT assay; assay type: functional, cell-based; details: dose 40.0 µg/ml
Botrytis cinerea [2] = assay: Antifungal activity against Botrytis cinerea B05.10 at 160 ug/ml incubated for 24 hrs by agar based assay; assay type: functional, organism-based; details: dose 160.0 µg/ml
Fusarium graminearum [3] = assay: Antifungal activity against Fusarium graminearum BRFM 1982 at 160 ug/ml incubated for 24 hrs by agar based assay; assay type: functional, organism-based; details: dose 160.0 µg/ml
Pyricularia grisea [4] = assay: Antifungal activity against Magnaporthe grisea CF-105765 at 160 ug/ml incubated for 24 hrs by agar based assay; assay type: functional, organism-based; details: dose 160.0 µg/ml
HepG2 [5] = assay: Cytotoxicity against human HepG2 cells at 25 ug/ml treated for 72 hrs by MTT assay; assay type: functional, cell-based; details: dose 25.0 µg/ml
Botrytis cinerea [6] = assay: Antifungal activity against Botrytis cinerea B05.10 at 100 ug/ml incubated for 24 hrs by agar based assay; assay type: functional, organism-based; details: dose 100.0 µg/ml
Fusarium graminearum [7] = assay: Antifungal activity against Fusarium graminearum BRFM 1982 at 100 ug/ml incubated for 24 hrs by agar based assay; assay type: functional, organism-based; details: dose 100.0 µg/ml
Pyricularia grisea [8] = assay: Antifungal activity against Magnaporthe grisea CF-105765 at 100 ug/ml incubated for 24 hrs by agar based assay; assay type: functional, organism-based; details: dose 100.0 µg/ml
HepG2 [9] = assay: Cytotoxicity against human HepG2 cells at 12.5 ug/ml treated for 72 hrs by MTT assay; assay type: functional, cell-based; details: dose 12.5 µg/ml
Botrytis cinerea [10] = assay: Antifungal activity against Botrytis cinerea B05.10 at 50 ug/ml incubated for 24 hrs by agar based assay; assay type: functional, organism-based; details: dose 50.0 µg/ml
Fusarium graminearum [11] = assay: Antifungal activity against Fusarium graminearum BRFM 1982 at 50 ug/ml incubated for 24 hrs by agar based assay; assay type: functional, organism-based; details: dose 50.0 µg/ml
Pyricularia grisea [12] = assay: Antifungal activity against Magnaporthe grisea CF-105765 at 50 ug/ml incubated for 24 hrs by agar based assay; assay type: functional, organism-based; details: dose 50.0 µg/ml
HepG2 [13] = assay: Cytotoxicity against human HepG2 cells at 20 ug/ml treated for 72 hrs by MTT assay; assay type: functional, cell-based; details: dose 20.0 µg/ml
Botrytis cinerea [14] = assay: Antifungal activity against Botrytis cinerea B05.10 at 80 ug/ml incubated for 24 hrs by agar based assay; assay type: functional, organism-based; details: dose 80.0 µg/ml
Fusarium graminearum [15] = assay: Antifungal activity against Fusarium graminearum BRFM 1982 at 80 ug/ml incubated for 24 hrs by agar based assay; assay type: functional, organism-based; details: dose 80.0 µg/ml
Pyricularia grisea [16] = assay: Antifungal activity against Magnaporthe grisea CF-105765 at 80 ug/ml incubated for 24 hrs by agar based assay; assay type: functional, organism-based; details: dose 80.0 µg/ml

Measured: Activity

CN1C(=O)[C@H](Cc2cn([C@@]34C[C@H]5C(=O)N(C)[C@H](Cc6ccccc6)C(=O)N5[C@@H]3N(C=O)c3ccccc34)c3ccccc23)NC(=O)[C@H]1Cc1ccccc1
inactive: HepG2 [1] | Botrytis cinerea [2] | Fusarium graminearum [3] | Pyricularia grisea [4]

CN1C(=O)[C@H](Cc2cn([C@@]34C[C@H]5C(=O)N(C)[C@H](Cc6ccccc6)C(=O)N5[C@@H]3Nc3ccccc34)c3ccccc23)NC(=O)[C@H]1Cc1ccccc1
inactive: HepG2 [5] | Botrytis cinerea [6] | Fusarium graminearum [7] | Pyricularia grisea [8]

COc1ccc(C[C@H]2C(=O)N[C@@H](C(C)C)C(=O)O[C@H](C)[C@H](NC(C)=O)C(=O)N[C@H](C(C)C)C(=O)N3CCC[C@H]3C(=O)N3CCC[C@H]3C(=O)N2C)cc1
inactive: HepG2 [1] | Botrytis cinerea [2] | Fusarium graminearum [3] | Pyricularia grisea [4]

CN1C(=O)[C@H](Cc2c[nH]c3cc([C@@]45C[C@H]6C(=O)N(C)[C@H](Cc7ccccc7)C(=O)N6[C@@H]4N(C=O)c4ccccc45)ccc23)NC(=O)[C@H]1Cc1ccccc1
inactive: HepG2 [1] | Botrytis cinerea [2] | Fusarium graminearum [3] | Pyricularia grisea [4]

CC[C@H](C)[C@H]1NC(=O)[C@@H](NC(C)=O)[C@@H](C)OC(=O)[C@H](C(C)C)NC(=O)[C@H](Cc2ccc(OC)cc2)N(C)C(=O)[C@@H]2CCCN2C(=O)[C@@H]2CCCN2C1=O
inactive: HepG2 [1] | Botrytis cinerea [2] | Fusarium graminearum [3] | Pyricularia grisea [4]

CN1C(=O)[C@H](Cc2c[nH]c3cc([C@@]45C[C@H]6C(=O)N(C)[C@H](Cc7ccccc7)C(=O)N6[C@@H]4Nc4ccccc45)ccc23)NC(=O)[C@H]1Cc1ccccc1
inactive: HepG2 [9] | Botrytis cinerea [10] | Fusarium graminearum [11] | Pyricularia grisea [12]

CN1C(=O)[C@H](Cc2c[nH]c3ccc([C@]45C[C@H]6C(=O)N(C)[C@H](Cc7ccccc7)C(=O)N6[C@H]4Nc4ccccc45)cc23)NC(=O)[C@H]1Cc1ccccc1
inactive: HepG2 [1] | Botrytis cinerea [2] | Fusarium graminearum [3] | Pyricularia grisea [4]

CC[C@H](C)[C@H]1NC(=O)[C@@H](NC(C)=O)[C@@H](C)OC(=O)[C@H](C(C)C)NC(=O)[C@H](Cc2ccccc2)N(C)C(=O)[C@@H]2CCCN2C(=O)[C@@H]2CCCN2C1=O
inactive: HepG2 [13] | Botrytis cinerea [14] | Fusarium graminearum [15] | Pyricularia grisea [16]
